The values below come from article PMC539285, “Anti-Plasmodium activity of ceramide analogs” (Malaria Journal, 2004).

Data set [1] relates to chloroquine-resistant strain FcB1 of P. falciparum. As to the kind of experiment: Anti-Plasmodium activity, [3H]hypoxanthine microdilution on asynchronous cultures. Type of data set: cell-based, Plasmodium falciparum. The procedure:
(§1) P. falciparum strains (FcB1/Colombia, K1/Thailand, F32/Tanzania, W2/Indochina) were maintained in continuous culture on human erythrocytes in RPMI medium containing 7% (v/v) heat-inactivated human serum under an atmosphere of 3% CO2, 6% O2, 91% N2, at 37°C, as described by Trager and Jensen. Parasite synchronization was performed successively by treatment with 5% (w/v) sorbitol and by concentration in gelatin solution as previously described.
(§2) Drug susceptibility assays were performed using a modification of the semi automated microdilution technique of Desjardins et al.. Stock solutions of test compounds were prepared in DMSO. Drug solutions were serially diluted twofold with 100 μl culture medium in 96-well plates. Asynchronous parasite cultures (100 μl, 1 % parasitemia and 1 % final hematocrite) were added to each well and incubated for 24 hours at 37°C prior to the addition of 0.5 μCi of [^3H] hypoxanthine (Amersham, France, 1 to 5 Ci.mmol/ml) per well. After a further incubation of 24 hour, plates were frozen and thawed. Cell lysates were then collected onto glass-filter papers and counted in a liquid scintillation spectrometer. The growth inhibition for each drug concentration was determined by comparison of the radioactivity incorporated in the treated culture with that in the control culture (having the same final % of DMSO) maintained on the same plate. The concentration causing 50% growth inhibition (IC50) and 90% growth (IC90) were obtained from the drug concentration-response curve and the results were expressed as the means ± the standard deviations determined from several independent experiments.
On the technique in general: Dilution methods test growth across graded concentrations, often in twofold steps.

In data set [2] the test system is P. falciparum strain K1. As to the kind of experiment: Anti-Plasmodium activity, strain K1. Type of data set: cell-based. The method, then:
as §1
as §2, with “The concentration causing 50% growth inhibition (IC50) and 90% growth (IC90) were obtained from the drug concentration-response curve and the results were expressed as the means ± the standard deviations determined from several independent experiments.” left out

For data set [3], the system named is P. falciparum strain F32. As to the kind of experiment: Anti-Plasmodium activity, strain F32. In kind it is cell-based. The method, then: as §1
as §2, with “The concentration causing 50% growth inhibition (IC50) and 90% growth (IC90) were obtained from the drug concentration-response curve and the results were expressed as the means ± the standard deviations determined from several independent experiments.” left out

Data set [4] concerns P. falciparum strain W2. As to the kind of experiment: Anti-Plasmodium activity, strain W2. In kind it is cell-based. The procedure:
as §1
as §2, with “The concentration causing 50% growth inhibition (IC50) and 90% growth (IC90) were obtained from the drug concentration-response curve and the results were expressed as the means ± the standard deviations determined from several independent experiments.” left out

A short description of data set [5]: Cytotoxicity test upon human embryonic cells (MTT). Type of data set: cell-based. The conditions noted are these: human, MRC-5 human diploid embryonic lung cells; MRC-5, five days, MTT; mean of three experiments. The procedure:
(§3) A human diploid embryonic lung cell line (MRC-5, Bio-Whittaker 72211D) was used to assess the cytotoxic effects towards eukaryotic host cells. MRC-5 cells were seeded at 5,000 cells per well in 100 μl. After 24 hours, the cells were washed and two-fold dilutions of the drug were added in 200 μl standard culture medium (RPMI medium + 5% fetal calf serum) and maintained for five days under 5% CO2 atmosphere. The final DMSO concentration in the culture remained below 0.1%. Untreated cultures were included as controls. The cytotoxicity was determined using the colorimetric MTT assay according to the manufacturer's recommendations (Cell proliferation kit I, Roche Applied Science, France) and scored as a percentage of reduction in absorption at 540 nm of treated cultures versus untreated control cultures. […] The results were expressed as the mean ± the standard deviations determined from several independent experiments. The index of selectivity was defined as the ratio of the IC50 value on MRC-5 to that of P. falciparum.

Data set [6] relates to human MRC-5 cells. As to the kind of experiment: Cytotoxicity test upon human embryonic cells (MTT). In kind it is cell-based. The procedure:
as §3

For data set [7], the system named is P. falciparum sphingomyelin synthase activity. As to the kind of experiment: Sphingomyelin synthase activity assay in trophozoite cultures (NBD-C6-ceramide). Type of data set: cell-based, Plasmodium falciparum. The conditions noted are these: trophozoites 20-30 h, 0-500 μM drug, 10 μM NBD-C6-ceramide, 60 min, 37°C. The method, then: SPM synthase activity was measured as described by Haldar et al.. Briefly, assays were performed on P. falciparum cultures at the trophozoite stage (20–30 h old parasites). 400 μl of culture (1 × 10^8 parasites) were incubated for 60 min at 37°C with 10 μM NBD-C6-ceramide and 0 to 500 μM PPMP or AD2646. Cells were then lysed by freezing and thawing of the culture. Lipids were extracted by a modification of the method of Bligh and Dyer. To each sample, three volumes of a CH3OH/CHCl3 mixture (1:2, v:v) were added and the mixture vortexed for one min. Organic and aqueous phases were separated by centrifugation (12,000 × g, five min) and the organic phase was dried. Lipids were dissolved in 15 μl ethanol and analysed by thin layer chromatography on HPTLC plates (Silica gel 60 F254, Merck, Darmstadt, Germany) in CH3OH/[…]/NH4OH (75:25:4, v:v:v). For qualitative analyses, the fluorescent lipids were detected under UV and for quantitative analyses, the fluorescent lipid spots were scraped, eluted in one ml methanol and quantified at an excitation of 470 nm and an emission of 530 nm in a spectrofluorometer. The percentage of SPM synthase activity for each drug concentration was determined by comparison of the fluorescence quantified in the analog-treated culture with that in the control culture (without drug).

Data set [8] has as its system tubovesicular network of P. falciparum. As to the kind of experiment: Tubovesicular network formation, BODIPY-FL-C5-ceramide fluorescence microscopy. Type of data set: cell-based, Plasmodium falciparum. The procedure:
Infected erythrocytes treated with or without ceramide analogs were incubated for 30 min, at 37°C, in culture medium containing 10 μM BODIPY-FL-C5-ceramide, washed three times with culture medium without serum and fixed overnight, at 4°C, in 3.7% formaldehyde/0.05% glutaraldehyde. Cells were mounted on poly-L-lysine coated slides and viewed using a Nikon Eclipse TE 300 DV inverted microscope with an 100X oil objective mounted on a piezzo electric device using appropriate fluorescence emission filters. Image acquisition (z-series) was performed with a back illuminated cooled detector (CCD EEV: NTE/CCD-1024-EB, Roper Scientific, France) using a 0.2 μm step. Data acquisition and image deconvolution process were performed with Metamorph software (Universal Imaging Corporation, Roper Scientific, France). The images presented correspond to the maximum intensity projection of the deconvoluted z-series.

Data set [9] concerns erythrocytes. As to the kind of experiment: Lysis of normal and infected erythrocytes. In kind it is cell-based, human. The conditions noted are these: 250 nM, 48 hours. The method, then: By their lipidic nature, these analogs might act through a detergent effect that could lead to lysis or modification of the integrity of infected-erythrocyte membranes. This apparently is not the case. No significant lysis of normal erythrocytes was observed after 48 hous of incubation with concentrations of analogs up to 10 μM (data not shown).

Data set [10] has as its system CQ-resistant strain K1. As to the kind of experiment: Drug combination with antimalarial drugs, strain K1. Type of data set: cell-based, Plasmodium falciparum. The note with it: CQ-resistant strain K1 (data not shown). The text has this: Compound AD2646 (Figure 1) was selected to further investigate the biological effects of methylene analogs on parasite development.

As to `CCCCCCCCCCCCCCN[C@H](CO)[C@H](O)c1ccc([N+](=O)[O-])cc1` [AD2646], the “efficiency in inhibiting parasite development relative to PPMP” value in data set [1] (AD2646 versus PPMP) is “about 300 times”. In addition, the IC90 in data set [1] (Plasmodium falciparum, 48 h, Figure 3, series B, strain FcB1, 90% growth inhibition, read-out: CI90 (the source's name)) stood at 57.7 ± 3.2 nM. In addition, the IC50 in [1] (Plasmodium falciparum, Figure 3, series B (methylene or thiourea linkage), strain FcB1, read-out: CI50 (the source's name)) was found to be 30.8 ± 4.6 nM; in data set [2], 45 nM; in data set [3], 21 nM; in data set [4] it was 28 nM; in data set [6] (Homo sapiens, MRC5, 120 h, MRC-5, five days, MTT, mean of three experiments), 4900 nM. The IC90 at 5 days in [5] worked out at 7500 nM. Further, the Index of selectivity in [6] (ratio of the IC50 value on MRC-5 cells to that on P. falciparum) is listed as 160. In addition, the “inhibition of SPM synthase activity (shape of curve)” value in [7] was “biphasic inhibition curve that superimposes on the PPMP inhibition curve”. Further, in data set [8] (60 nM), the parasite development result is reported as “blocks irreversibly the parasite development”. For the same molecule, the TVN formation result in [8] (rings incubated 24 hours with 60 nM AD2646 or 5 μM PPMP) is given as “TVN was distinctly observed”. For the same molecule, the parasite growth result in [9] is “inhibiting parasite growth totally”. In addition, the “lysis of infected erythrocytes” value in [9] (infected cultures, Giemsa-stained smears) is “no preferential lysis of infected-erythrocytes”. In data set [10], the “drug combination effect with CQ” value was “non-synergistic and non-antagonistic effect”.
